Among the data in PubChem BioAssay AID388 (SGCOxCompounds, 2006) are Tm shift values, retold here.

Molecules are shown by their SMILES.

The test deals with 15-hydroxyprostaglandin dehydrogenase [NAD(+)] (Homo sapiens) (UniProt P15428). Kind of test: HPGD binders by thermal shift, biophysical, DSF, SYPRO orange, purified protein (AID 388). The note with it: at 10 µM, buffer 10 mM HEPES, pH 7.5, NaCl 150 mM, hits give high values.
15-hydroxyprostaglandin dehydrogenase [NAD(+)] (Homo sapiens), sequence (P15428 whole entry, looked up): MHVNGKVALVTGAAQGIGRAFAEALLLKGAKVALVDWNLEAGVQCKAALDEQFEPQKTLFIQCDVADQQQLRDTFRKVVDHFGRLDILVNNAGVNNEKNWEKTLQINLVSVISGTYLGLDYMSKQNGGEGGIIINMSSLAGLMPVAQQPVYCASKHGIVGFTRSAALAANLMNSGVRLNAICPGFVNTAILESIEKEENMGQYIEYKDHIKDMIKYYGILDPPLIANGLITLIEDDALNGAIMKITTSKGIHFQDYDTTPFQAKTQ

Turning to `COc1ccc2c(c1)c(CC(=O)O)c(C)n2C(=O)c1ccc(Cl)cc1`, the Tm shift is 2.1 Celsius.
On the same count and under the same terms, with `COc1cc([C@@H]2Oc3cc([C@@H]4Oc5cc(O)cc(O)c5C(=O)[C@H]4C)ccc3O[C@H]2CO)ccc1O` the figure was 2.4 Celsius; with `O=c1cc(-c2ccccc2)oc2cc(O)c(O)c(O)c12`, 2.9 Celsius.
Still for that read-out and setting: the same measure for `CCc1nnc(NS(=O)(=O)c2ccc(NC(=O)c3ccc(Cl)cc3Cl)cc2)s1`: 2.2 Celsius; for `O=C(O)c1cccnc1Nc1cccc(C(F)(F)F)c1`: 2.1 Celsius.
On to `O=C1NC(=O)c2c1c1c3ccccc3[nH]c1c1[nH]c3cc(Br)ccc3c21`, for which the Tm shift was 2.11 Celsius.
Same read-out and setting: with `CCc1ccc(CCOc2ccc(CC3SC(=O)CC3=O)cc2)nc1` (stereo unspecified) the figure was 2.28 Celsius; with `O=c1c(-c2ccc(O)cc2)coc2cc(O)cc(O)c12`, 2.12 Celsius; with `CCc1nnc(NS(=O)(=O)c2ccc(NC(=O)/C=C/c3ccc(F)cc3)cc2)s1`, 2.9 Celsius.
For the compound `CN(CCOc1ccc(CC2SC(=O)NC2=O)cc1)c1ccccn1` (stereo unspecified), under “NADH 40 µM”, the Tm shift was 2.5 Celsius.
`Cc1c(O)cc(O)c2c1OC(c1ccc(O)c(O)c1)C(=O)C2=O` (stereo unspecified): the Tm shift was 2.5 Celsius.
Still for that read-out and setting: with `CC1=CC(=O)C=C(C)C1=O` the figure was 6.05 Celsius; with `O=C1CC(c2ccc(O)cc2)Oc2cc(O)cc(O)c21` (stereo unspecified), 3.1 Celsius.
For `C[C@@]1(c2ccc(O)cc2)CC(=O)c2c(O)cc(O)cc2O1`, the Tm shift is 2.25 Celsius.
Take `CC1(C)[C@@H](OC(=O)CCC(=O)O)CC[C@]2(C)[C@H]3C(=O)C=C4[C@@H]5C[C@@](C)(C(=O)O)CC[C@]5(C)CC[C@@]4(C)[C@]3(C)CC[C@@H]12`: the Tm shift is 2.35 Celsius.
On the same count and under the same terms, with `O=c1cc(-c2ccc(O)c(O)c2)oc2cc(O)cc(O)c12` the figure was 2.19 Celsius.
